The values that follow come from patent US12312359B2 (Vitae Pharmaceuticals, LLC, priority 2016, dated 2025).

Usually IC50 stands for the concentration that inhibits the measured activity by half. One may read the EC50 as the concentration giving half of the maximal effect. Low values mean greater potency, high ones weaker potency.

The target of assay [1] is T1, biotinylated wild-type menin and MLL-AF9 fusion protein (menin/MLL binding) (Homo sapiens, UniProt O00255).
T1 construct: made in house; host or cells: menin: E. coli; MLL-AF9-FLAG: HEK293 cells, used as cleared lysate
T1 sequence (O00255 1-610): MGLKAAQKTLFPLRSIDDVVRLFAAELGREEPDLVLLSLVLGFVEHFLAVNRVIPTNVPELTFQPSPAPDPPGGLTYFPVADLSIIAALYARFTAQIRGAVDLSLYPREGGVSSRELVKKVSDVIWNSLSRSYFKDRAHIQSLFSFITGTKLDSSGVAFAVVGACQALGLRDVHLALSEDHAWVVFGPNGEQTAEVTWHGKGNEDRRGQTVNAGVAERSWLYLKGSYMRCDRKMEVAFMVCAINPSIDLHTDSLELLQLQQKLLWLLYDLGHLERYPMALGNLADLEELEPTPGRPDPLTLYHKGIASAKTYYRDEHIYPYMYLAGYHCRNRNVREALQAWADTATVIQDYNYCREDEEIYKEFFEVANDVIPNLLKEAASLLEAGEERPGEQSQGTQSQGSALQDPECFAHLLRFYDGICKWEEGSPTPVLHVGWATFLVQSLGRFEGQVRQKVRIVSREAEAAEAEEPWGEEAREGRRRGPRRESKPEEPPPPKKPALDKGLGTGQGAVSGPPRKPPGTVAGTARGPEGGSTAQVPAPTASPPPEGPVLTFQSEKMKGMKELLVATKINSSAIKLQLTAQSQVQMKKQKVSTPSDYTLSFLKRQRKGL
The experiment in a line: Assay 1: menin/MLL binding AlphaLISA assay, wild-type menin. To be noted: Table 30; column head does not say wild-type or mutated menin. Put shortly:
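Compound was preincubated 30 min at room temperature with biotinylated menin (5 nM) and MLL-AF9-FLAG lysate from HEK293 cells, pH 7.4 buffer with 5% DMSO and DTT. Bead-based Alpha signal after 60 min with streptavidin donor and anti-FLAG acceptor beads; four-parameter logistic fit gave IC50.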
On the technique in general: Bead proximity is the source of the signal in Alpha formats.

The test system of assay [2] is human acute monocytic leukemia cell line MV-4-11. The experiment in a line: Assay 2: cell proliferation assay (ATP quantitation, CellTiter-Glo), MV-4-11. To be noted: MV-4-11 cells. Type of assay: cell-based. In outline:
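Read-out is CellTiter-Glo luminescence quantifying ATP. Compound exposure lasted 72 h at 37° C., 5% CO2, with 1.67×10^4 MV-4-11 cells per well in 10% FBS medium, alongside HL-60 toxicity-control cells.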
Background: Cellular ATP, detected with luciferase, serves as a proxy for viable cell number.

Molecules are shown by their SMILES.

Consider `COc1ccc(CC(=O)N2CC3(C2)CN(c2ncncc2Oc2ccc(F)cc2-c2cncnc2C(C)C)C3)cn1` [Example 132, 1-(6-(5-(4-fluoro-2-(4-isopropylpyrimidin-5-yl)phenoxy)pyrimidin-4-yl)-2,6-diazaspiro[3.3]heptan-2-yl)-2-(6-methoxypyridin-3-yl)ethan-1-one], for which the IC50 in assay [1] was under 100 nM. Moreover, the EC50 in assay [2] (Homo sapiens, MV4-11, 72 h) is 100 to 1000 nM.
Taken in the same sequence, the figures for `CC(C)CCc1cc(F)ccc1Oc1cncnc1N1CCC2(CCN(Cc3ccc4[nH]c(=O)[nH]c4c3)C2)C1` (stereo not shown) [Example 235, 5-((7-(5-(4-fluoro-2-isopentylphenoxy)pyrimidin-4-yl)-2,7-diazaspiro[4.4]nonan-2-yl)methyl)-1,3-dihydro-2H-benzo[d]imidazol-2-one] were under 100 nM and 100 to 1000 nM.
Taken in the same sequence, the figures for `N#Cc1ccc(-c2cc(F)ccc2Oc2cncnc2N2CC3(CN(CC4(O)CCOCC4)C3)C2)c(C2CC2)c1` [Example 214, 2-cyclopropyl-5′-fluoro-2′-((4-(6-((4-hydroxytetrahydro-2H-pyran-4-yl)methyl)-2,6-diazaspiro[3.3]heptan-2-yl)pyrimidin-5-yl)oxy)-[1,1′-biphenyl]-4-carbonitrile] were under 100 nM and 100 to 1000 nM.
`CC(C)N(C(=O)c1cc(F)ccc1Oc1cncnc1N1CC2(CN(CC[C@H]3CC[C@H](NC(=O)CC(C)(C)C)CC3)C2)C1)C(C)C` [Example 87, 2-((4-(6-(2-((1r,4r)-4-(3,3-dimethyl-butanamido)cyclo-hexyl)ethyl)-2,6-diazaspiro[3.3]heptan-2-yl)pyrimidin-5-yl)oxy)-5-fluoro-N,N-diisopropyl-benzamide]: in assay [1], the IC50 was under 100 nM. The EC50 in assay [2] (Homo sapiens, MV4-11, 72 h) lay within 100 to 1000 nM.
Taken in the same sequence, the figures for `CC(C)c1ncncc1-c1cc(F)ccc1Oc1cncnc1N1CC2(CN(C(=O)Cc3ccc(C#N)cc3)C2)C1` [Example 227, 4-(2-(6-(5-(4-fluoro-2-(4-isopropylpyrimidin-5-yl)phenoxy)pyrimidin-4-yl)-2,6-diazaspiro[3.3]heptan-2-yl)-2-oxoethyl)benzonitrile] were under 100 nM and under 100 nM.
Taken in the same sequence, the figures for `CC(C)N(C)C(=O)c1cc(F)ccc1Oc1cncnc1N1CCC2(CCN(Cc3ccc4c(c3)NC(=O)C4(C)C)C2)C1` (stereo not shown) [Example 202, 2-((4-(7-((3,3-dimethyl-2-oxoindolin-6-yl)methyl)-2,7-diazaspiro[4.4]nonan-2-yl)pyrimidin-5-yl)oxy)-5-fluoro-N-isopropyl-N-methylbenzamide] were under 100 nM and 100 to 1000 nM.
As to `CCN(C(=O)C(C)C)c1cc(F)ccc1Oc1cncnc1N1CC2(CN(C(=O)C3Cc4ccc(S(C)(=O)=O)cc4C3)C2)C1` (stereo not shown) [Example 117, N-ethyl-N-(5-fluoro-2-((4-(6-(5-(methylsulfonyl)-2,3-dihydro-1H-indene-2-carbonyl)-2,6diazaspiro[3.3]heptan-2-yl)pyrimidin-5-yl)oxy)phenyl)iso-butyramide], the IC50 in assay [1] is under 100 nM. The molecule further registered an EC50 in assay [2] (Homo sapiens, MV4-11, 72 h) of 100 to 1000 nM.
Taken in the same sequence, the figures for `CCN(C(=O)C(C)C)c1cc(F)ccc1Oc1cncnc1N1CC2(CN(CC3CCCCC3)C2)C1` [Example 106, N-(2-((4-(6-(cyclohexylmethyl)-2,6-diazaspiro[3.3]heptan-2-yl)pyrimidin-5-yl)oxy)-5-fluoro-phenyl)-N-ethylisobutyramide] were under 100 nM and under 100 nM.
As for `Cn1c(-c2cc(F)ccc2Oc2cncnc2N2CCC3(CCN(Cc4ccc5[nH]c(=O)[nH]c5c4)C3)C2)c(C2CC2)ccc1=O` (single isomer, unassigned) [Example 29B, 5-((7-(5-(2-(3-cyclopropyl-1-methyl-6-oxo-1,6-dihydropyridin-2-yl)-4-fluorophenoxy)pyrimidin-4-yl)-2,7-diazaspiro[4.4]nonan-2-yl)methyl)-1,3-dihydro-2H-benzo[d]imidazol-2-one], in assay [1], the IC50 was under 100 nM. In addition, the EC50 in assay [2] (72 h) lay within 100 to 1000 nM.
As to `CC1(C)C(=O)Nc2cc(CN3CCC4(CCN(c5ncncc5Oc5ccc(F)cc5OC5CCCC5)C4)C3)ccc21` (stereo not shown) [Example 193, 6-((7-(5-(2-(cyclopentyloxy)-4-fluorophenoxy)pyrimidin-4-yl)-2,7-diazaspiro[4.4]nonan-2-yl)methyl)-3,3-dimethylindolin-2-one], the IC50 in assay [1] is under 100 nM. The molecule also came in with an EC50 in assay [2] (Homo sapiens, MV4-11, 72 h) of under 100 nM.
Take `CC(C)N(C)C(=O)c1cc(F)ccc1Oc1cncnc1N1CC2(CC(NC[C@H]3CC[C@H](NC(=O)OC(C)(C)C)CC3)C2)C1` [Example 83, tert-butyl ((1r,4r)-4-(((2-(5-(4-fluoro-2-(isopropyl(methyl)carbamoyl)phenoxy)pyrimidin-4-yl)-2-azaspiro[3.3]heptan-6-yl)amino)methyl)cyclohexyl)carbamate]: the IC50 in assay [1] was under 100 nM. The same molecule showed an EC50 in assay [2] (Homo sapiens, MV4-11, 72 h) of 100 to 1000 nM.
In turn, `CC(C)n1nc(C(F)(F)F)cc1-c1cc(F)ccc1Oc1cncnc1N1CC2(CN(CC3(O)CCCCC3)C2)C1` [Example 72, 1-((6-(5-(4-fluoro-2-(1-isopropyl-3-(trifluoromethyl)-1H-pyrazol-5-yl)phenoxy)pyrimidin-4-yl)-2,6-diazaspiro[3.3]heptan-2-yl)methyl)cyclohexan-1-ol] had an IC50 in assay [1] of under 100 nM. Moreover, in assay [2] (Homo sapiens, MV4-11, 72 h), the EC50 lay in the range of 100 to 1000 nM.
`N#Cc1ccc(CCN2CC3(C2)CN(c2ncncc2Oc2ccc(F)cc2-c2ccc(C#N)cc2C2CC2)C3)cc1` [Example 203, 2′-((4-(6-(4-cyanophenethyl)-2,6-diazaspiro[3.3]heptan-2-yl)pyrimidin-5-yl)oxy)-2-cyclopropyl-5′-fluoro-[1,1′-biphenyl]-4-carbonitrile]: the IC50 in assay [1] is under 100 nM. Also, the EC50 in assay [2] (Homo sapiens, MV4-11, 72 h) was at least 1000 nM.
Taken in the same sequence, the figures for `CC(C)c1scnc1-c1cc(F)ccc1Oc1cncnc1N1CCC2(CCN(Cc3ccc4[nH]c(=O)[nH]c4c3)C2)C1` (stereo not shown) [Example 190, 5-((7-(5-(4-fluoro-2-(5-isopropylthiazol-4-yl)phenoxy)pyrimidin-4-yl)-2,7-diazaspiro[4.4]nonan-2-yl)methyl)-1,3-dihydro-2H-benzo[d]imidazol-2-one] were under 100 nM and under 100 nM.
Taken in the same sequence, the figures for `CCC(O)(CC)c1cc(F)ccc1Oc1cncnc1N1CCC2(CCN(Cc3ccc4[nH]c(=O)[nH]c4c3)C2)C1` (stereo not shown) [Example 34, 5-((7-(5-(4-fluoro-2-(3-hydroxypentan-3-yl)phenoxy)pyrimidin-4-yl)-2,7-diazaspiro[4.4]nonan-2-yl)methyl)-1,3-dihydro-2H-benzo[d]imidazol-2-one] were under 100 nM and at least 1000 nM.
As to `CC(C)N(C(=O)c1cc(F)ccc1Oc1cncnc1N1CC2(CCN(C[C@H]3CC[C@@H](NS(C)(=O)=O)CC3)CC2)C1)C(C)C` [Example 6B, 5-fluoro-N,N-diisopropyl-2-((4-(7-(((1s,4s)-4-(methylsulfonamido)cyclohexyl)methyl)-2,7-diazaspiro[3.5]nonan-2-yl)pyrimidin-5-yl)oxy)benzamide], the IC50 in assay [1] is under 100 nM. Besides, in assay [2] (Homo sapiens, MV4-11, 72 h), the EC50 is under 100 nM.
`CC(C)n1nccc1-c1cc(F)ccc1Oc1cncnc1N1CCC2(CCN(Cc3ccc4nn[nH]c4c3)C2)C1` (stereo not shown) [Example 198, 6-((7-(5-(4-fluoro-2-(1-isopropyl-1H-pyrazol-5-yl)phenoxy)pyrimidin-4-yl)-2,7-diazaspiro[4.4]nonan-2-yl)methyl)-1H-benzo[d][1,2,3] triazole] showed an IC50 in assay [1] of under 100 nM. The molecule further registered an EC50 in assay [2] (Homo sapiens, MV4-11, 72 h) of under 100 nM.
